Usually EC50 stands for the concentration needed to bring the measured effect to its halfway point.

In the assay the target is T1, recombinant human pancreatic GLK (Homo sapiens, UniProt P35557).
T1 sequence (P35557 1-465): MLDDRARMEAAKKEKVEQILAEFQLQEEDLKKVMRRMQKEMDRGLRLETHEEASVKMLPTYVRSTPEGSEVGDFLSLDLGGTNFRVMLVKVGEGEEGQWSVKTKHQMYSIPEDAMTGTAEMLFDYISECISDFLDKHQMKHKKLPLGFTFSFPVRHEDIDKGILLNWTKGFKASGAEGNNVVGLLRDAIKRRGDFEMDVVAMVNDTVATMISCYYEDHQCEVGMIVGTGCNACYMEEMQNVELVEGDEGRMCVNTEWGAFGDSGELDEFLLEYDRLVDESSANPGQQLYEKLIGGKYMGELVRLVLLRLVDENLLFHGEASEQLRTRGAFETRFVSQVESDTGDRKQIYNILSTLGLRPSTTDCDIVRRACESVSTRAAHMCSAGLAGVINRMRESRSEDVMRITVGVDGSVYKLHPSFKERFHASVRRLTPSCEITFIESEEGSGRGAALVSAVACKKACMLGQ
Kind of assay: biochemical.
Turning to `Cc1ccc(NC(=O)[C@H](CCS(C)(=O)=O)Oc2ncnc3c2cnn3-c2ccccc2Cl)nc1` [Example 161, -(2S)-2-(1-(2-chlorophenyl)-1H-pyrazolo[3,4-d]pyrimidin-4-yloxy)-N-(5-methylpyridin-2-yl)-4-(methylsulfonyl)butanamide], the concentration for a half-maximal effect (EC50) turned out to be 610 nM. With `N#Cc1ccc(NC(=O)[C@H](COCCO)Oc2ncnc3c2cnn3-c2ncccc2Cl)nc1` [Example 162, (2S)-2-(1-(3-chloropyridin-2-yl)-1H-pyrazolo[3,4-d]pyrimidin-4-yloxy)-N-(5-cyanopyridin-2-yl)-3-(2-hydroxyethoxy)propanamide] the figure was 1500 nM.

With `O=C(Nc1ccc(Cl)cn1)[C@H](COCCO)Oc1ncnc2c1cnn2-c1ncccc1Cl` [Example 163, (2S)—N-(5-chloropyridin-2-yl)-2-(1-(3-chloropyridin-2-yl)-1H-pyrazolo[3,4-d]pyrimidin-4-yloxy)-3-(2-hydroxyethoxy)propanamide], the EC50 turned out to be 580 nM.

With `Cc1ccc(NC(=O)[C@H](CCNS(C)(=O)=O)Oc2ncnc3c2cnn3-c2ccccc2Cl)nc1` [Example 164, (2S)-2-(1-(2-chlorophenyl)-1H-pyrazolo[3,4-d]pyrimidin-4-yloxy)-N-(5-methylpyridin-2-yl)-4-(methylsulfonamido)butanamide], the EC50 stood at 930 nM.

Regarding `O=C(Nc1ccc(Cl)cn1)[C@H](CN1CC(O)C1)Oc1ncnc2c1cnn2-c1ncccc1Cl` [Example 165, (2S)—N-(5-chloropyridin-2-yl)-2-[1-(3-chloropyridin-2-yl)pyrazolo[4,5-e]pyrimidin-4-yl]oxy-3-(3-hydroxyazetidin-1-yl)propanamide], the concentration for a half-maximal effect (EC50) is 370 nM.

For `Cc1c(Cl)cccc1-n1ncc2c(O[C@@H](COCCO)C(=O)Nc3ccc(C#N)cn3)ncnc21` [Example 166, (2S)-2-[1-(3-chloro-2-methylphenyl)pyrazolo[4,5-e]pyrimidin-4-yl]oxy-N-(5-cyanopyridin-2-yl)-3-(2-hydroxyethoxy)propanamide], the concentration giving a half-maximal response (EC50) was found to be 2900 nM. `Cc1ccc(NC(=O)[C@H](COCCO)Oc2ncnc3c2cnn3-c2cccc(Cl)c2C)nc1` [Example 167, (2S)-2-[1-(3-chloro-2-methylphenyl)pyrazolo[4,5-e]pyrimidin-4-yl]oxy-3-(2-hydroxyethoxy)-N-(5-methylpyridin-2-yl)propanamide]: the EC50 worked out at 1100 nM. `Cc1c(F)cccc1-n1ncc2c(O[C@@H](COCCO)C(=O)Nc3ccc(C#N)cn3)ncnc21` [Example 168, (2S)—N-(5-cyanopyridin-2-yl)-2-[1-(3-fluoro-2-methylphenyl)pyrazolo[4,5-e]pyrimidin-4-yl]oxy-3-(2-hydroxyethoxy)propanamide]: the EC50 came out at 3900 nM. As to `Cc1c(F)cccc1-n1ncc2c(O[C@@H](COCCO)C(=O)Nc3ccc(Cl)cn3)ncnc21` [Example 170, (2S)—N-(5-chloropyridin-2-yl)-2-[1-(3-fluoro-2-methylphenyl)pyrazolo[4,5-e]pyrimidin-4-yl]oxy-3-(2-hydroxyethoxy)propanamide], the concentration for a half-maximal effect (EC50) is 1500 nM. In the case of `O=C(Nc1ccc(Cl)cn1)[C@H](COCCO)Oc1ncnc2c1cnn2-c1ccccc1Cl` [Example 171, (2S)-2-[1-(2-chlorophenyl)pyrazolo[4,5-e]pyrimidin-4-yl]oxy-N-(5-chloropyridin-2-yl)-3-(2-hydroxyethoxy)propanamide], the EC50 came out at 330 nM.

As for `N#Cc1ccc(NC(=O)[C@H](COCCO)Oc2ncnc3c2cnn3-c2ccccc2Cl)nc1` [Example 172, (2S)-2-[1-(2-chlorophenyl)pyrazolo[4,5-e]pyrimidin-4-yl]oxy-N-(5-cyanopyridin-2-yl)-3-(2-hydroxyethoxy)propanamide], the EC50 stood at 810 nM. To `Cc1c(Cl)cccc1-n1ncc2c(O[C@@H](COCCO)C(=O)Nc3ccc(Cl)cn3)ncnc21` [Example 173, (2S)-2-[1-(3-chloro-2-methylphenyl)pyrazolo[4,5-e]pyrimidin-4-yl]oxy-N-(5-chloropyridin-2-yl)-3-(2-hydroxyethoxy)propanamide] belongs 920 nM.

The values above are taken from US8143263B2, “Therapeutic agents” (Astrazeneca AB, priority 2008, dated 2012).
